Values quoted from earlier work, collected in patent US10406114B2, “Antibiotic-loaded transdermal patch” (priority 2017, dated 2019).

System: Staphylococcus aureus

## CC1=C(C(=O)O)N2C(=O)[C@@H](NC(=O)[C@H](N)c3ccccc3)[C@H]2SC1 [cephalexin]
  MIC: about 8 μg/ml
